Results as given in ChEMBL document CHEMBL1201862, “PubChem BioAssay data set” (2004).
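Each compound was tested at five concentrations against cells in 96-well plates for 48 hours. GI50 is the concentration that inhibits growth by half.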 Active and inactive are the calls of the source. Cut-off read from the data, not from the text of the source: active = GI50 up to about 1.1 µM and inactive = higher.

Tests used:
Experiment in all cases: inhibition of tumour cell growth, NCI panel, 48 h
[1] = tested on: HOP-62
[2] = tested on: SW-620
[3] = tested on: KM12
[4] = tested on: OVCAR-8
[5] = tested on: U-251
[6] = tested on: HT-29
[7] = tested on: DLD-1
[8] = tested on: COLO 205
[9] = tested on: HCT-15
[10] = tested on: Malme-3M
[11] = tested on: HCT-116
[12] = tested on: SNB-19
[13] = tested on: MOLT-4
[14] = tested on: NCI-H226
[15] = tested on: RPMI-8226
[16] = tested on: HL-60

| Structure (SMILES) | GI50 [1] | GI50 [2] | GI50 [3] | GI50 [4] | GI50 [5] | GI50 [6] | GI50 [7] | GI50 [8] | GI50 [9] | GI50 [10] | GI50 [11] | GI50 [12] | GI50 [13] | GI50 [14] | GI50 [15] | GI50 [16] |
| --- | --- | --- | --- | --- | --- | --- | --- | --- | --- | --- | --- | --- | --- | --- | --- | --- |
| O=C1OC2CCCC[C@@H]2C2C[C@]34CCCCC3[C@@H](C(=O)O4)C12 (some centres undefined) | > 100 µM (inactive) | > 100 µM (inactive) | > 100 µM (inactive) | > 100 µM (inactive) | > 100 µM (inactive) | > 100 µM (inactive) | > 100 µM (inactive) | > 100 µM (inactive) | > 100 µM | > 100 µM (inactive) | > 100 µM (inactive) | > 100 µM (inactive) | > 100 µM (inactive) | > 100 µM (inactive) | – | – |
| CC(=O)OCC1OC(NC(=S)N/N=C2\CC(c3ccccc3)Oc3ccccc32)C(OC(C)=O)C(OC(C)=O)C1OC(C)=O (centres undefined) | > 100 µM (inactive) | > 100 µM (inactive) | > 100 µM (inactive) | > 100 µM (inactive) | > 100 µM (inactive) | > 100 µM (inactive) | > 100 µM (inactive) | > 100 µM (inactive) | > 100 µM | > 100 µM (inactive) | > 100 µM (inactive) | > 100 µM (inactive) | > 100 µM (inactive) | > 100 µM (inactive) | > 100 µM (inactive) | > 100 µM (inactive) |
| O=C1OC(c2ccccc2)=N/C1=C/NC(Cc1ccc(O)cc1)C(=O)O (centres undefined) | > 100 µM (inactive) | > 100 µM (inactive) | > 100 µM (inactive) | > 100 µM (inactive) | > 100 µM (inactive) | > 100 µM (inactive) | > 100 µM (inactive) | > 100 µM (inactive) | > 100 µM | > 100 µM (inactive) | > 100 µM (inactive) | > 100 µM (inactive) | – | > 100 µM (inactive) | > 100 µM (inactive) | > 100 µM (inactive) |
| O=C(c1ccc(Cl)cc1)N(C(=S)N1CCN(c2ccccc2)CC1)c1ccccc1 | > 100 µM (inactive) | > 100 µM (inactive) | > 100 µM (inactive) | > 100 µM (inactive) | > 100 µM (inactive) | > 100 µM (inactive) | > 100 µM (inactive) | > 100 µM (inactive) | > 100 µM | > 100 µM (inactive) | > 100 µM (inactive) | > 100 µM (inactive) | > 100 µM (inactive) | 53.8 µM (inactive) | > 100 µM (inactive) | > 100 µM (inactive) |
| CC(Cl)(/C=C/Cl)C(Cl)/C=C/C(Cl)(CCl)CBr (centres undefined) | 24.3 µM (inactive) | 2.15 µM (inactive) | 6.64 µM (inactive) | 1.71 µM (inactive) | 3.72 µM (inactive) | 1.69 µM (inactive) | 2.47 µM (inactive) | 2.01 µM (inactive) | 0.308 µM | 3.37 µM (inactive) | 1.54 µM (inactive) | 14.1 µM (inactive) | 0.373 µM (active) | 10.2 µM (inactive) | 1.66 µM (inactive) | 0.533 µM (active) |
| CCOC(=O)C1=C(C)N(Cc2ccccc2)C(C)=C(C(=O)OCC)C1c1ccccc1O | 31.5 µM (inactive) | 39.9 µM (inactive) | 23.7 µM (inactive) | 31.7 µM (inactive) | 39.4 µM (inactive) | 41.4 µM (inactive) | 27.9 µM (inactive) | 13 µM (inactive) | 30.1 µM | 26 µM (inactive) | 29.4 µM (inactive) | 43.2 µM (inactive) | 11.3 µM (inactive) | 19.4 µM (inactive) | – | 26.6 µM (inactive) |
| c1ccc2c(c1)oc1ccc3nsnc3c12 | – | > 100 µM (inactive) | 56 µM (inactive) | – | – | > 100 µM (inactive) | > 100 µM (inactive) | > 100 µM (inactive) | > 100 µM | > 100 µM (inactive) | > 100 µM (inactive) | > 100 µM (inactive) | > 100 µM (inactive) | 51.6 µM (inactive) | – | > 100 µM (inactive) |
| COc1cc(Br)c(/C=N\c2cccc3cc(OC)c(OC)cc23)cc1OC | > 100 µM (inactive) | 35.6 µM (inactive) | 28.8 µM (inactive) | 34.7 µM (inactive) | 42.5 µM (inactive) | 31.9 µM (inactive) | 43.4 µM (inactive) | 97.7 µM (inactive) | 31.4 µM | 54.1 µM (inactive) | 34.3 µM (inactive) | > 100 µM (inactive) | 26.8 µM (inactive) | 41.7 µM (inactive) | 23.9 µM (inactive) | 11.3 µM (inactive) |
| C[N+]1(C)C/C(=C\c2ccccc2)C(=O)/C(=C/c2ccccc2)C1 | > 100 µM (inactive) | – | > 100 µM (inactive) | > 100 µM (inactive) | 31.4 µM (inactive) | > 100 µM (inactive) | > 100 µM (inactive) | > 100 µM (inactive) | > 100 µM | > 100 µM (inactive) | > 100 µM (inactive) | – | 32.8 µM (inactive) | > 100 µM (inactive) | 51.2 µM (inactive) | > 100 µM (inactive) |
